The results in this text go back to patent US20150175530A1, “ANTIBACTERIAL AGENTS” (priority 2012, published 2015).

The test system of series [1] is 3 P. aeruginosa strains (APAE001, APAE002, APAE006). As to the kind of experiment: Protein binding: fold change in MIC in the presence of 2% HSA and 0.05% AGP, Geomean of 3 strains. Type of series: cell-based, Pseudomonas aeruginosa. The settings on record: MIC in the presence of 2% HSA and 0.05% AGP divided by MIC in the absence; Geomean of 3 P. aeruginosa strains (APAE001, APAE002, APAE006). As to the method: The effect of human serum albumin (HSA) and α-1-acid glycoprotein (AGP) from human plasma, which are known to nonspecifically bind to certain antibiotics and thereby reduce their activity (Banéres-Roquet et al. 2009 “Use of a Surface Plasmon Resonance Method to Investigate Antibiotic and Plasma Protein Interactions” Antimicrob. Agents and Chemother. 53(4):1528-1531), was assessed against 3 P. aeruginosa strains (APAE001, APAE002, APAE006). APAE001 is Pseudomonas aeruginosa ATCC27853; APAE002 is a wildtype lab strain of Pseudomonas aeruginosa known as PAM1020 or PA01. APAE006 is a strain of […]/PA01 with efflux deletions: delta mexAB-oprM::CM delta CD-oprJ::Gm delta mexEF-oprN::omega Hg. Lomovskaya, 0 et al. 1999. Use of a Genetic Approach To Evaluate the Consequences of Inhibition of Efflux Pumps in P aeruginosa. Antimicrob. Agents Chemother. 43: 1340-1346.
The standard procedure described in Susceptibility Testing was utilized with one adjustment, specifically 2% HSA and 0.05% AGP were added to the cation adjusted Mueller-Hinton Broth. The MIC for each strain of interest was then assessed in the presence and absence of HSA/AGP. Following MIC determination, the fold change in MIC was determined for each individual strain by dividing the MIC in the presence of HSA/AGP by the MIC in the absence of HSA/AGP. The protein binding Geomean was then calculated using these 3 values.

The test system of series [2] is bacterial isolates (clinical isolates and ATCC quality control strains). Nature of the series: Minimum Inhibitory Concentrations (MICs) by broth microdilution (CLSI susceptibility testing). Type of series: cell-based. As for the experimental part:
Bacterial isolates were cultivated from −70° C. frozen stocks by overnight passages at 35° C. in ambient air on Mueller-Hinton agar (Beckton Dickinson, Franklin Lakes, N.J.). Clinical isolates tested were obtained from various geographically diverse hospitals in the US and abroad (Focus Diagnostics, Herndon, Va. and JMI, North Liberty, Iowa). Quality control strains were from the American Type Culture Collection (ATCC; Rockville, Md.).
Minimum Inhibitory Concentrations (MICs) were determined by the broth microdilution method in accordance with the Clinical and Laboratory Standards Institute (CLSI) guidelines. In brief, organism suspensions were adjusted to a 0.5 McFarland standard to yield a final inoculum between 3×10^5 and 7×10^5 colony-forming units (CFU)/mL. Drug dilutions and inocula were made in sterile, cation adjusted Mueller-Hinton Broth (Beckton Dickinson). An inoculum volume of 100 μL was added to wells containing 100 μL of broth with 2-fold serial dilutions of drug. All inoculated microdilution trays were incubated in ambient air at 35° C. for 18-24 h. Following incubation, the lowest concentration of the drug that prevented visible growth (OD600 nm<0.05) was recorded as the MIC. Performance of the assay was monitored by the use of laboratory quality-control strains and levofloxacin, a compound with a defined MIC spectrum, in accordance with CLSI guidelines.

Where [3] appears, read: APAE1096 is a clinical isolate, broth microdilution, read-out: Minimum Inhibitory Concentrations (MICs) APAE1096.
[4] abbreviates: Pseudomonas aeruginosa, APAE002 is a wildtype lab strain of Pseudomonas aeruginosa known as PAM1020 or PA01, broth microdilution, read-out: Minimum Inhibitory Concentrations (MICs) APAE002.
Setting [5] is: Pseudomonas aeruginosa, ATCC27853, APAE001 is Pseudomonas aeruginosa ATCC27853, broth microdilution, read-out: Minimum Inhibitory Concentrations (MICs) APAE001.

≈ marks a conversion by molar mass, not a printed value. Like-named read-outs stand apart in the source and are kept apart here.

Regarding `CC(C)(NCCO)[C@H](NC(=O)c1ccc(C#CC#CCCO)cc1)C(=O)NO` [Compound 11, (S)—N-(1-(hydroxyamino)-3-(2-hydroxyethylamino)-3-methyl-1-oxobutan-2-yl)-4-(6-hydroxyhexa-1,3-diynyl)benzamide], in series [1], the “Protein Binding PB (Geomean of fold change in MIC)” value is 1.5. Besides, the MIC is 1 to 8 µg/mL (≈ 2.58 to 20.6 µM) in series [2] (setting [3]), under 1 µg/mL in series [2] (setting [4]) and under 1 µg/mL in series [2] (setting [5]).
With `Cc1cc(CNC(C)(C)[C@H](NC(=O)c2ccc(C#CC#CCCO)cc2)C(=O)NO)no1` [Compound 12, (S)—N-(1-(hydroxyamino)-3-methyl-3-((5-methylisoxazol-3-yl)methylamino)-1-oxobutan-2-yl)-4-(6-hydroxyhexa-1,3-diynyl)benzamide], the “Protein Binding PB (Geomean of fold change in MIC)” value in series [1] is 2.9. Moreover, the MIC in series [2] (setting [3]) was in the range of 8 to 16 µg/mL (≈ 18.2 to 36.5 µM); in series [2] (setting [4]), 1 to 8 µg/mL (≈ 2.28 to 18.2 µM); in series [2] (setting [5]), 1 to 8 µg/mL (≈ 2.28 to 18.2 µM).
Consider `CC(C)(NCc1c[nH]cn1)[C@H](NC(=O)c1ccc(C#CC#CCCO)cc1)C(=O)NO` [Compound 13, (S)—N-(3-((1H-imidazol-4-yl)methylamino)-1-(hydroxyamino)-3-methyl-1-oxobutan-2-yl)-4-(6-hydroxyhexa-1,3-diynyl)benzamide], for which the “Protein Binding PB (Geomean of fold change in MIC)” value in series [1] worked out at 1.4. The MIC in series [2] (setting [3]) is 1 to 8 µg/mL (≈ 2.36 to 18.9 µM); in series [2] (setting [4]), 1 to 8 µg/mL (≈ 2.36 to 18.9 µM); in series [2] (setting [5]) it was under 1 µg/mL.
Regarding `C[C@H](O)C#CC#Cc1ccc(C(=O)N[C@H](C(=O)NO)C(C)(C)N)cc1` [Compound 14, N—((S)-3-amino-1-(hydroxyamino)-3-methyl-1-oxobutan-2-yl)-4-((S)-5-hydroxyhexa-1,3-diynyl)benzamide], the “Protein Binding PB (Geomean of fold change in MIC)” value in series [1] was 3.4. The MIC was 1 to 8 µg/mL (≈ 2.91 to 23.3 µM) in series [2] (setting [3]), under 1 µg/mL in series [2] (setting [4]) and under 1 µg/mL in series [2] (setting [5]).
As for `C[C@@H](O)C#CC#Cc1ccc(C(=O)N[C@H](C(=O)NO)C(C)(C)N)cc1` [Compound 15, N—((S)-3-amino-1-(hydroxyamino)-3-methyl-1-oxobutan-2-yl)-4-((R)-5-hydroxyhexa-1,3-diynyl)benzamide], in series [1], the “Protein Binding PB (Geomean of fold change in MIC)” value is 2.3. The MIC in series [2] (setting [3]), in series [2] (setting [4]) and in series [2] (setting [5]) was under 1 µg/mL in each case.
Regarding `CNC(C)(C)[C@H](NC(=O)c1ccc(C#CC#C[C@H](C)O)cc1)C(=O)NO` [Compound 16, N—((S)-1-(hydroxyamino)-3-methyl-3-(methylamino)-1-oxobutan-2-yl)-4-((S)-5-hydroxyhexa-1,3-diynyl)benzamide], the “Protein Binding PB (Geomean of fold change in MIC)” value in series [1] stood at 3.6. Further, the results for the MIC in series [2] (setting [3]), in series [2] (setting [4]) and in series [2] (setting [5]) were 1 to 8 µg/mL (≈ 2.8 to 22.4 µM), under 1 µg/mL and under 1 µg/mL, respectively.
For the compound `CC(C)(N)[C@H](NC(=O)c1ccc(C#CC#CC(O)CO)cc1)C(=O)NO` (stereo partly drawn) [Compound 17, N—((S)-3-amino-1-(hydroxyamino)-3-methyl-1-oxobutan-2-yl)-4-(5,6-dihydroxyhexa-1,3-diynyl)benzamide], the “Protein Binding PB (Geomean of fold change in MIC)” value in series [1] stood at 1.5. The MIC was in the range of 1 to 8 µg/mL (≈ 2.78 to 22.3 µM) in series [2] (Pseudomonas aeruginosa, ATCC27853, read-out: Minimum Inhibitory Concentrations (MICs) APAE001); 1 to 8 µg/mL (≈ 2.78 to 22.3 µM) in series [2] (Pseudomonas aeruginosa, read-out: Minimum Inhibitory Concentrations (MICs) APAE002); 8 to 16 µg/mL (≈ 22.3 to 44.5 µM) in series [2] (read-out: Minimum Inhibitory Concentrations (MICs) APAE1096).
Turning to `CC(C)(N)[C@H](NC(=O)c1ccc(C#CC#CC(CO)CO)cc1)C(=O)NO` [Compound 18, (S)—N-(3-amino-1-(hydroxyamino)-3-methyl-1-oxobutan-2-yl)-4-(6-hydroxy-5-(hydroxymethyl)hexa-1,3-diynyl)benzamide], in series [1], the “Protein Binding PB (Geomean of fold change in MIC)” value turned out to be 1.6. In addition, the MIC in series [2] (setting [3]) lay in the range of 8 to 16 µg/mL (≈ 21.4 to 42.8 µM); in series [2] (setting [4]) it was 1 to 8 µg/mL (≈ 2.68 to 21.4 µM); in series [2] (setting [5]) it was 1 to 8 µg/mL (≈ 2.68 to 21.4 µM).
As to `CC(C)(N)[C@H](NC(=O)c1ccc(C#CC#CC(O)(CO)CCl)cc1)C(=O)NO` (stereo partly drawn) [Compound 19, N—((S)-3-amino-1-(hydroxyamino)-3-methyl-1-oxobutan-2-yl)-4-(6-chloro-5-hydroxy-5-(hydroxymethyl)hexa-1,3-diynyl)benzamide], the “Protein Binding PB (Geomean of fold change in MIC)” value in series [1] was found to be 1.0. Also, the MIC is 1 to 8 µg/mL (≈ 2.45 to 19.6 µM) in series [2] (setting [3]), 1 to 8 µg/mL (≈ 2.45 to 19.6 µM) in series [2] (setting [4]) and under 1 µg/mL in series [2] (setting [5]).
